Test results taken from patent publication US20050075375A1 (priority 2003, published 2005).
pEC50: −log10 of the molar value. Where two headings read alike, the source gives them in different places.

System: monocistronic NK5.1 HCV replicon in Huh7 cells
Assay: HCV replicon assay, monocistronic replicon cell line
Type: cell-based, hepatitis C virus
Details: read-out: Mono EC50 Median
Summary of the method: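 Huh7 cells carrying the monocistronic NK5.1 replicon, seeded 24 h before dosing, were exposed to six-point half-log compound series (0.6% DMSO) for 3 days at 37 °C. Replicon RNA was quantified by TaqMan RT-PCR, normalised to GAPDH and compared with DMSO controls to derive EC50.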

[1] = Hepatitis C virus, Huh-7, 72 h, table T3 (compounds 471-640), monocistronic replicon in Huh7 cells, 3 days incubation, HCV RNA/GAPDH RNA by TaqMan RT-PCR
[2] = Hepatitis C virus, Huh-7, 72 h, Table 1, monocistronic replicon in Huh7 cells, 3 days incubation, HCV RNA/GAPDH RNA by TaqMan RT-PCR
[3] = Hepatitis C virus, Huh-7, monocistronic NK5.1 HCV replicon in Huh7 cells, median value

SMILES | pEC50 [2] | pEC50 [3] | other results
Fc1cc(-c2nc(-c3ccc(C(F)(F)F)cn3)n[nH]2)ccc1-c1ccccc1 [Compound 514, 2-[5-(2-Fluoro-biphenyl-4-yl)-1H-[1,2,4]triazol-3-yl]-5-trifluoromethyl-pyridine] |  |  | pEC50 [1]: < 4.72
COc1cccc(-c2nc(-c3ncccc3C)no2)c1O [Compound 184, 2-Methoxy-6-[3-(3-methyl-pyridin-2-yl)-[1,2,4]oxadiazol-5-yl]-phenol] | 6.17 |  | 
COc1ccc(O)c(-c2nc(-c3ncccc3[N+](=O)[O-])no2)c1 [Compound 160, 4-Methoxy-2-[3-(3-nitro-pyridin-2-yl)-[1,2,4]oxadiazol-5-yl]-phenol] | < 4.72 |  | 
Cc1cccnc1-c1noc(-c2cc(F)ccc2O)n1 [Compound 187] |  |  | pEC50 (Table 1, monocistronic replicon in Huh7 cells, 3 days incubation, HCV RNA/GAPDH RNA by TaqMan RT-PCR): 5.19
CCOc1cccc(-c2nc(-c3cccc(C)n3)n[nH]2)c1O [Compound 396, 6-Ethoxy-2-(5-(6-methyl-pyridin-2-yl)-2H-[1,2,4]triazol-3-yl)-phenol] |  | < 4.72 | 
Cc1cccnc1-c1nc(-c2ccc(OCc3ccccc3)cc2O)n(C)n1 [Compound 611, 5-Benzyloxy-2-[2-methyl-5-(3-methyl-pyridin-2-yl)-2H-[1,2,4]triazol-3-yl]-phenol] |  |  | pEC50 [1]: < 5.49
COc1ccc(O)c(-c2nc(-c3nccc4ccccc34)no2)c1 [Compound 202, 2-(3-Isoquinolin-1-yl-[1,2,4]oxadiazol-5-yl)-4-methoxy-phenol] | 5.72 |  | 
Oc1c(Cl)cc(Cl)cc1-c1nc(-c2ccccn2)n[nH]1 [Compound 619, 4,6-Dichloro-2-(5-pyridin-2-yl-2H-[1,2,4]triazol-3-yl)-phenol] |  |  | pEC50 [1]: 6.52
Fc1ccccc1-c1nnc(-c2cccs2)o1 [Compound 337, 2-(2-Fluoro-phenyl)-5-thiophen-2-yl-[1,3,4]oxadiazole] |  | < 4.49 | 
COc1ccc(-c2nc(-c3nccc4ccccc34)no2)c(O)c1 [Compound 205, 2-(3-Isoquinolin-1-yl-[1,2,4]oxadiazol-5-yl)-5-methoxy-phenol] | 6.00 |  | 
COc1ccc(O)c(-c2nc(-c3ccccn3)no2)c1 [Compound 147, 4-Methoxy-2-(3-pyridin-2-yl-[1,2,4]oxadiazol-5-yl)-phenol] | 5.36 |  | 
Oc1ccccc1-c1ncn(-c2ccccn2)n1 [Compound 629, 2-(1-Pyridin-2-yl-1H-[1,2,4]triazol-3-yl)-phenol] |  |  | pEC50 [1]: 4.80
Cc1cccnc1-c1nc(-c2ccccc2O)n(C)n1 [Compound 614, 2-[2-methyl-5-(3-methyl-pyridin-2-yl)-2H-[1,2,4]triazol-3-yl]-phenol] |  |  | pEC50 [1]: 5.16
Cc1cccnc1-c1noc(-c2ccc(N(C)C)cc2O)n1 [Compound 180] | 5.68 |  | 
COc1ccccc1-c1nnc(-c2ncccc2C(F)(F)F)o1 [Compound 345] |  | 5.08 | 
O=[N+]([O-])c1cccc(-c2nc(-c3ncccc3C(F)(F)F)n[nH]2)c1 [Compound 544, 2-[5-(3-Nitro-phenyl)-1H-[1,2,4]triazol-3-yl]-3-trifluoromethyl-pyridine] |  |  | pEC50 [1]: < 4.72
Fc1cc(-c2nc(-c3ccccn3)n[nH]2)ccc1-c1ccccc1 [Compound 357, 2-[5-(2-Fluoro-biphenyl-4-yl)-1H-[1,2,4]triazol-3-yl]-pyridine] |  | 5.15 | 
O=C(O)c1cc(-c2ccc3ccccc3c2)n(-c2ccccn2)n1 [Compound 74, 5-Naphthalen-2-yl-1-pyridin-2-yl-1H-pyrazole-3-carboxylic acid] | < 4.49 |  | 
COc1ccc(OCc2ccccc2)c(-c2ccn(-c3ncccc3C(F)(F)F)n2)c1 [Compound 80, 2-[3-(2-Benzyloxy-5-methoxy-phenyl)-pyrazol-1-yl]-3-trifluoromethyl-pyridine] | 5.74 |  | 
COc1ccc(-c2nc(-c3nccc4ccccc34)n[nH]2)c(O)c1 [Compound 376, 5-Methoxy-2-(5-isoquinolin-1-yl-2H-[1,2,4]triazol-3-yl)-phenol] |  | < 4.72 | 
COc1ccc(Br)cc1-c1nc(-c2ncccc2C(F)(F)F)n[nH]1 [Compound 553, 2-[5-(5-Bromo-2-methoxy-phenyl)-1H-[1,2,4]triazol-3-yl]-3-trifluoromethyl-pyridine] |  |  | pEC50 [1]: < 4.72
Oc1ccc(F)cc1-c1nc(-c2ncccc2C(F)(F)F)n[nH]1 [Compound 533, 4-Fluoro-2-[5-(3-trifluoromethyl-pyridin-2-yl)-2H-[1,2,4]triazol-3-yl]-phenol] |  |  | pEC50 [1]: < 4.72
O=[N+]([O-])c1cccnc1-c1noc(-c2cc(Br)ccc2O)n1 [Compound 155, 4-Bromo-2-[3-(3-nitro-pyridin-2-yl)-[1,2,4]oxadiazol-5-yl]-phenol] | < 4.72 |  | 
O=[N+]([O-])c1ccc(-c2nc(-c3nccc4ccccc34)no2)c(Cl)c1 [Compound 212] | < 4.49 | < 4.49 | 
O=[N+]([O-])c1ccc(O)c(-c2nc(-c3nccc4ccccc34)no2)c1 [Compound 195, 2-(3-Isoquinolin-1-yl-[1,2,4]oxadiazol-5-yl)-4-nitro-phenol] | < 4.49 |  | 

SMILES | pEC50 [2] | pEC50 [3] | other results
COc1ccc(OC)c(-c2nc(-c3ncccc3[N+](=O)[O-])no2)c1 [Compound 159] | 4.80 |  | 
Cc1cccc(-c2n[nH]c(-c3cc(Br)ccc3O)n2)n1 [Compound 399, 4-Bromo-2-(5-(6-methyl-pyridin-2-yl)-2H-[1,2,4]triazol-3-yl)-phenol] |  | < 4.72 | 
Cn1nc(-c2ccccn2)nc1-c1cc(Cl)cc(Cl)c1O [Compound 625, 4,6-Dichloro-2-(2-methyl-5-pyridin-2-yl-2H-[1,2,4]triazol-3-yl)-phenol] |  |  | pEC50 [1]: 5.49
COc1ccc(O)c(-c2ncn(-c3ncccc3C)n2)c1 [Compound 637, 4-Methoxy-2-[1-(3-methyl-pyridin-2-yl)-1H-[1,2,4]triazol-3-yl]-phenol] |  |  | pEC50 [1]: 4.92
O=[N+]([O-])c1cccc(-c2nc(-c3nccc4ccccc34)n[nH]2)c1 [Compound 379] |  | < 4.72 | 
CC(=O)Nc1ccc(-c2n[nH]c(-c3cc(Br)ccc3O)n2)nc1 [Compound 593, N-{6-[5-(5-Bromo-2-hydroxy-phenyl)-1H-[1,2,4]triazol-3-yl]-pyridin-3-yl}-acetamide] |  |  | pEC50 [1]: 4.31
COc1ccc(-c2nc(-c3ncccc3OC)no2)c(O)c1 [Compound 247, 5-Methoxy-2-[3-(3-methoxy-pyridin-2-yl)-[1,2,4]oxadiazol-5-yl]-phenol] | 5.39 | 5.39 | 
Cc1cc(-c2ccc3ccccc3c2O)n(-c2ccc(Cl)cc2)n1 [Compound 19, 2-[2-(4-Chloro-phenyl)-5-methyl-2H-pyrazol-3-yl]-naphthalen-1-ol] | 4.77 |  | 
Cc1cc(-c2ccc3ccccc3c2O)nn1-c1ccccc1C(F)(F)F [Compound 16, 2-[5-Methyl-1-(2-trifluoromethyl-phenyl)-1H-pyrazol-3-yl]-naphthalen-1-ol] | 4.77 |  | 
Cc1cccc(-c2n[nH]c(-c3ccc(Br)cc3)n2)n1 [Compound 464, 2-[5-(4-Bromo-phenyl)-1H-[1,2,4]triazol-3-yl]-6-methyl-pyridine] |  | < 4.49 | 
COc1ccccc1-c1nnc(-c2ccccc2C(F)(F)F)o1 [Compound 327, 2-(2-Methoxy-phenyl)-5-(2-trifluoromethyl-phenyl)-[1,3,4]oxadiazole] |  | 4.60 | 
COc1cccc(-c2cc(-c3ccccn3)on2)c1O [Compound 124, 2-Methoxy-6-(5-pyridin-2-yl-isoxazol-3-yl)-phenol] | 4.59 |  | 
COc1ccc(O)c(-c2nc(-c3ncccc3Br)no2)c1 [Compound 258, 2-[3-(3-Bromo-pyridin-2-yl)-[1,2,4]oxadiazol-5-yl]-4-methoxy-phenol] |  | < 5.00 | 
COc1cccc(-c2nc(-c3cccc(C)n3)n[nH]2)c1O [Compound 403, 6-Methoxy-2-(5-(6-methyl-pyridin-2-yl)-2H-[1,2,4]triazol-3-yl)-phenol] |  | < 4.72 | 
CCOc1cccc(-c2nc(-c3ncccc3C)no2)c1O [Compound 268, 2-Ethoxy-6-[3-(3-methyl-pyridin-2-yl)-[1,2,4]oxadiazol-5-yl]-phenol] |  | 4.54 | 
COc1ccccc1-c1nnc(-c2ccccc2)o1 [Compound 325, 2-(2-Methoxy-phenyl)-5-phenyl-[1,3,4]oxadiazole] |  | < 4.49 | 
Cc1cc(O)c(-c2cc(C)n(-c3ccccc3)n2)cc1C [Compound 17, 4,5-Dimethyl-2-(5-methyl-1-phenyl-1H-pyrazol-3-yl)-phenol] | < 4.72 |  | 
COc1ccc(-c2ccn(-c3c(Cl)cncc3Cl)n2)c(F)c1 [Compound 49, 3,5-Dichloro-4-[3-(2-fluoro-4-methoxy-phenyl)-pyrazol-1-yl]-pyridine] | < 4.49 |  | 
O=[N+]([O-])c1ccc(F)c(-c2nc(-c3ccccn3)no2)c1 [Compound 149] | 5.39 |  | 
Oc1ccccc1-c1ccnn1-c1ccccn1 [Compound 44, 2-(2-Pyridin-2-yl-2H-pyrazol-3-yl)-phenol] | < 4.49 |  | 
Cn1nc(-c2ncccc2C(F)(F)F)nc1-c1cc(Br)ccc1O [Compound 633, 4-Bromo-2-[2-methyl-5-(3-trifluoromethyl-pyridin-2-yl)-2H-[1,2,4]triazol-3-yl]phenol] |  |  | pEC50 [1]: 5.44
COc1ccccc1-c1nnc(-c2ccccc2[N+](=O)[O-])o1 [Compound 328, 2-(2-Methoxy-phenyl)-5-(2-nitro-phenyl)-[1,3,4]oxadiazole] |  | < 4.49 | 
COc1ccc(-c2nc(-c3ccoc3)no2)c(O)c1 [Compound 286, 2-(3-Furan-3-yl-[1,2,4]oxadiazol-5-yl)-5-methoxy-phenol] |  | 5.01 | 
COc1cc(O)c(-c2nc(-c3ncccc3-c3ccccc3)no2)c(OC)c1 [Compound 233, 3,5-Dimethoxy-2-[3-(3-phenyl-pyridin-2-yl)-[1 ,2,4]oxadiazol-5-yl]-phenol] | 5.68 | 5.68 | 
